Assay results reported in patent publication US9113629B2, “4-amino-6-(4-substituted-phenyl)-picolinates and 6-amino-2-(4-substituted-phenyl)-pyrimidine-4-carboxylates and their use as herbicides” (DOW AGROSCIENCES LLC, priority 2013, dated 2015).
Like-named read-outs stand apart in the source and are kept apart here.

Legend:
[1] = system: Key Broadleaf Weed and Crop Species; experiment: Post-emergent Test II herbicidal activity (Table 5); assay type: in vivo; settings: post-emergence, 336 h, 14 days after application; for pest or weed control at 70 g/ha: application rate 70 g ai/ha; for pest or weed control at 140 g/ha: application rate 140 g ai/ha
In short: (§1)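 Percent injury, 0 (none) to 100 (complete kill), was judged visually 14 d after spraying young plants at the first or second true leaf stage with compound in an acetone/DMSO aqueous carrier at 187 L/ha. Plants were kept in a greenhouse at 23–29 °C by day.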

[2] = system: Key Grass and Sedge Weeds as well as Grass Crops; experiment: Post-emergent Test II herbicidal activity (Table 6); assay type: in vivo; settings: post-emergence, 336 h; for pest or weed control at 140 g/ha: 140 g ai/ha; for pest or weed control at 70 g/ha: 70 g ai/ha
In short: as §1

[3] = ABUTH: velvetleaf (Abutilon theophrasti), read-out: Visual Growth Reduction (%) 14 Days After Application, ABUTH
[4] = AMARE: redroot pigweed (Amaranthus retroflexus), read-out: Visual Growth Reduction (%) 14 Days After Application, AMARE
[5] = BRSNN: oilseed-rape, canola (Brassica napus), read-out: Visual Growth Reduction (%) 14 Days After Application, BRSNN
[6] = CHEAL: lambsquarters (Chenopodium album), read-out: Visual Growth Reduction (%) 14 Days After Application, CHEAL
[7] = EPHHL: wild poinsettia (Euphorbia heterophylla), read-out: Visual Growth Reduction (%) 14 Days After Application, EPHHL
[8] = HELAN: sunflower (Helianthus annuus), read-out: Visual Growth Reduction (%) 14 Days After Application, HELAN
[9] = VIOTR: wild pansy (Viola tricolor), read-out: Visual Growth Reduction (%) 14 Days After Application, VIOTR
[10] = CYPES: yellow nutsedge (Cyperus esculentus), read-out: Visual Growth Reduction (%) 14 Days After Application, CYPES
[11] = DIGSA: crabgrass (Digitaria sanguinalis), read-out: Visual Growth Reduction (%) 14 Days After Application, DIGSA
[12] = ECHCG: barnyardgrass (Echinochloa crus-galli), read-out: Visual Growth Reduction (%) 14 Days After Application, ECHCG
[13] = ORYSA: rice (Oryza sativa), crop, read-out: Visual Growth Reduction (%) 14 Days After Application, ORYSA
[14] = SETFA: giant foxtail (Setaria faberi), read-out: Visual Growth Reduction (%) 14 Days After Application, SETFA
[15] = SORVU: grain sorghum (Sorghum vulgare), read-out: Visual Growth Reduction (%) 14 Days After Application, SORVU
[16] = TRZSS (wheat, Triticum aestivum), crop, read-out: Visual Growth Reduction (%) 14 Days After Application, TRZSS
[17] = ZEAMX: maize, corn (Zea mays), crop, read-out: Visual Growth Reduction (%) 14 Days After Application, ZEAMX

Compound | pest or weed control at 70 g/ha [1, 3] [%] | pest or weed control at 140 g/ha [1, 3] [%] | pest or weed control at 70 g/ha [1, 4] [%] | pest or weed control at 140 g/ha [1, 4] [%] | pest or weed control at 70 g/ha [1, 5] [%] | pest or weed control at 140 g/ha [1, 5] [%] | pest or weed control at 70 g/ha [1, 6] [%] | pest or weed control at 140 g/ha [1, 6] [%] | pest or weed control at 70 g/ha [1, 7] [%] | pest or weed control at 140 g/ha [1, 7] [%] | pest or weed control at 70 g/ha [1, 8] [%] | pest or weed control at 140 g/ha [1, 8] [%] | pest or weed control at 70 g/ha [1, 9] [%] | pest or weed control at 140 g/ha [1, 9] [%] | pest or weed control at 140 g/ha [2, 10] [%] | pest or weed control at 70 g/ha [2, 11] [%] | pest or weed control at 140 g/ha [2, 11] [%] | pest or weed control at 70 g/ha [2, 12] [%] | pest or weed control at 140 g/ha [2, 12] [%] | pest or weed control at 70 g/ha [2, 13] [%] | also measured
COC(=O)c1nc(-c2ccc(I)c(F)c2F)c(F)c(N)c1Cl [Compound 99] | 95 to 100 | 95 to 100 | 95 to 100 | 95 to 100 | 95 to 100 | 95 to 100 | 95 to 100 | 95 to 100 | 95 to 100 | 95 to 100 | 95 to 100 | 95 to 100 | 95 to 100 | 95 to 100 | 95 to 100 | 75 to 84 | 85 to 94 | 95 to 100 | 95 to 100 | 0 to 29 | pest or weed control at 140 g/ha [2, 13]: 0 to 29%; pest or weed control at 70 g/ha [2, 14]: 95 to 100%; pest or weed control at 140 g/ha [2, 14]: 95 to 100%; pest or weed control at 70 g/ha [2, 15]: 95 to 100%; pest or weed control at 140 g/ha [2, 15]: 95 to 100%; pest or weed control at 70 g/ha [2, 16]: 45 to 59%; pest or weed control at 140 g/ha [2, 16]: 60 to 74%; pest or weed control at 70 g/ha [2, 17]: 95 to 100%; pest or weed control at 140 g/ha [2, 17]: 95 to 100%; melting point: 168 to 170 °C
COc1c(N)nc(-c2ccc(I)cc2F)nc1C(=O)O [Compound 72] | 85 to 94 | 85 to 94 | 95 to 100 | 95 to 100 | 85 to 94 | 85 to 94 | 95 to 100 | 95 to 100 | 95 to 100 | 95 to 100 | 95 to 100 | 95 to 100 | 60 to 74 | 60 to 74 | 95 to 100 | 45 to 59 | 60 to 74 | 95 to 100 | 95 to 100 | 0 to 29 | pest or weed control at 70 g/ha [2, 10]: 0 to 29%; pest or weed control at 140 g/ha [2, 13]: 0 to 29%; pest or weed control at 70 g/ha [2, 14]: 45 to 59%; pest or weed control at 140 g/ha [2, 14]: 75 to 84%; pest or weed control at 70 g/ha [2, 15]: 85 to 94%; pest or weed control at 140 g/ha [2, 15]: 95 to 100%; pest or weed control at 70 g/ha [2, 16]: 60 to 74%; pest or weed control at 140 g/ha [2, 16]: 60 to 74%; pest or weed control at 70 g/ha [2, 17]: 60 to 74%; pest or weed control at 140 g/ha [2, 17]: 60 to 74%; melting point: 95 to 98 °C
